Data: article PMC11783427, “Enhanced dynamic coupling in a nuclear receptor underlies ligand activity” (The Journal of Biological Chemistry, 2024)
Where two headings read alike, the source gives them in different places. One block for each molecule: values may come before it.

Key:
FXR [1] = settings: cited from earlier work
FXR [2] = target: T1, FXR (Homo sapiens, UniProt Q96RI1); assay: Dual-luciferase reporter assay of FXR transcription (IR-1-CON-luc and PLTP-luc) in HeLa cells; type: cell-based
T1 construct: Luciferase with FL-FXR and Coregulators; expressed in transfected cells; host or cells: HeLa cells
T1 sequence (Q96RI1 1-476 isoform Q96RI1-1): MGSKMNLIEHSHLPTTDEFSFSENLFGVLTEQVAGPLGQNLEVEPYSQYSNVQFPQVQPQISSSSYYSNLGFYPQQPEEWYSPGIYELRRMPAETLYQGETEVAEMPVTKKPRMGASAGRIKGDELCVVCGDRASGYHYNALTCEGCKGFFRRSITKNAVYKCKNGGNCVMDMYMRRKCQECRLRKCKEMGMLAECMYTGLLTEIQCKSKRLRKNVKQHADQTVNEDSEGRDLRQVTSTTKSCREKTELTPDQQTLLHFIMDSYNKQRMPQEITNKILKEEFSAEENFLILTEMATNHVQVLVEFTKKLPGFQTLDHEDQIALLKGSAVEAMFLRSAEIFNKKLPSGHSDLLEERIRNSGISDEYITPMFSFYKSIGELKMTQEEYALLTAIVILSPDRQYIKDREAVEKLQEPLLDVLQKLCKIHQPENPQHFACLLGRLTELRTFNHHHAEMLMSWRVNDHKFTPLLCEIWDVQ
T1 sequence (P19793 1-462 partner): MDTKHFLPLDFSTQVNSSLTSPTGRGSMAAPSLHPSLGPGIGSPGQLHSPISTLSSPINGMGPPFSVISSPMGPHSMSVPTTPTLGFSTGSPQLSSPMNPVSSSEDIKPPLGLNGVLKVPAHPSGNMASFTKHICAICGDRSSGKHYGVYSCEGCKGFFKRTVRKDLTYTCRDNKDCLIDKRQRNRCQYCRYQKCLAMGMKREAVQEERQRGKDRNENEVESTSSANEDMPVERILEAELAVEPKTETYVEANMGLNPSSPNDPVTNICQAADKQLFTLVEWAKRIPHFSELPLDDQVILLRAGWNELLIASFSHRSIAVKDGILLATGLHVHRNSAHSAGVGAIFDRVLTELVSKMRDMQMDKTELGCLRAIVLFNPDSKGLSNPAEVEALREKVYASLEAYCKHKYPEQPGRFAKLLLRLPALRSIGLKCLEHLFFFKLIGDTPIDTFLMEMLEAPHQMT
Method: HeLa cells were obtained from American Type Culture Collection, and the cells were grown in culture in minimum essential medium alpha (Thermo Fisher Scientific) supplemented with 10% FBS and 1% L-glutamine at 37 °C with humidified atmosphere at 5% CO2.
Cells were seeded 10,000 cells/well in a 96-well, clear flat, bottom cell culture plate. Cotransfection was performed with equal amount of 5 ng of each expression plasmids pcDNA3.1-FXR and pcDNA3.1-RXR, along with 50 ng of the pGL4.31-derived plasmids containing the FXRE and 1 ng of renilla luciferase (pRL-CMV). […]
At 24 h after transfection, cells were stimulated with DMSO (final concentration of 0.71%) or test ligands at final concentrations 10 μM or 100 μM, as appropriate. After another 24 h incubation, Firefly luciferase activity and Renilla luciferase activity were measured using the Dual-Glo kit (Promega) using a SpectraMax iD5 plate reader. […]
Data for luciferase assays are presented as the mean ± standard SD of at least three independent replicates. p values were calculated using two-way ANOVA with Dunnett’s multiple comparisons test to access the differences between specific pairs of means. For coregulator mean comparisons, p values were calculated using one-way ANOVA with Sidaks’s multiple comparisons. […]

- luciferase activity (efficacy of FXR transcriptional activation) (FXR [2]; 100 μM ligand, compared with 10 μM OCA, Fig. S1A): falls short of 10 μM OCA levels
SMILES: C[C@H](CCC(=O)O)[C@H]1CC[C@H]2[C@@H]3CC[C@@H]4C[C@H](O)CC[C@]4(C)[C@H]3CC[C@]12C [LCA, lithocholic acid]

- luciferase activity (efficacy of FXR transcriptional activation) (FXR [2]; 10 μM ligand, both IR-1-CON-luc and PLTP-luc, compared among OCA, CDCA, LCA): highest efficacy
SMILES: CC[C@H]1[C@@H](O)[C@@H]2[C@H](CC[C@]3(C)[C@@H]([C@H](C)CCC(=O)O)CC[C@@H]23)[C@@]2(C)CC[C@@H](O)C[C@@H]12 [OCA, obeticholic acid]
